From patent US20230111310A1, “CARBOXYLIC ACID DERIVATIVE-SUBSTITUTED IMINO ARYL COMPOUND, PREPARATION METHOD THEREFOR, HERBICIDAL COMPOSITION AND USE THEREOF” (Qingdao Kingagroot Chemical Compound Co., Ltd., priority 2020, published 2023)

Assays:
Test in all cases: Weeding effect in post-emergence stage
Format in all cases: in vivo
Details in all cases: Dose 15 g/ha; level of fresh weight growth control rate
[1] = test system: Eleusine indica
Excerpt: (§1) The activity level criteria for plant damage (i.e., growth control rate) are as follows:
(§2) Monocotyledonous and dicotyledonous weed seeds (Descurainia sophia, Capsella bursa-pastoris, Abutilon theophrasti, Galium aparine, Stellaria media, Lithospermum arvense, rorippa indica, Alopecurus aequalis, Alopecurus japonicus, Eleusine indica, Beckmannia syzigachne, Sclerochloa dura, Conyza Canadensis, Phleum paniculatum, Veronica didyma Tenore, Bromus japonicus, Aegilops tauschii, Phalaris arundinacea, Amaranthus retroflexus, Chenopodiaceae, Commelina communis, Sonchus arvensis, Convolvulus arvensis, Cirsium setosum, Bidens tripartita L., Solanum nigrum, Acalypha australis, Digitaria sanguinalis, Echinochloa crusgalli, Setaria viridis, Setaria glauca, Leptochloa chinensis, Monochoria vaginalis, Sagittaria trifolia, Scirpus juncoides, Cyperus rotundus, Cyperus iria, Cyperus difformis, Fimbristylis, Portulaca oleracea, Xanthium sibiricum, Pharbitis nil, etc.) and major crop seeds (wheat, corn, rice, soybean, cotton, oilseed rape, millet, sorghum, potato, sesame, ricinus, etc.) were placed in plastic pots filled with soil, then covered with 0.5-2 cm of soil, allowed to grow in a good greenhouse environment. After 2 weeks of sowing, the test plants were treated in the 2-3 leaf stage. The tested compounds of the present invention were respectively dissolved in acetone, then added with Tween 80 and 1.5 liter/ha of emulsifiable concentrate of methyl oleate as synergist, diluted with a certain amount of water to obtain a solution with a certain concentration, and sprayed with a spray tower onto the plants. After the application, the plants were cultured for 3 weeks in the greenhouse, and then the experimental results of the weeding were counted. […]

[2] = test system: Setaria viridis
Excerpt: as §1, §2

[3] = test system: Digitaria sanguinalis
Excerpt: as §1, §2

[4] = test system: Alopecurus japonicus
Excerpt: as §1, §2

[5] = test system: Abutilon theophrasti
Excerpt: as §1, §2

[6] = test system: Echinochloa crusgalli
Excerpt: as §1
Monocotyledonous and dicotyledonous weed seeds (Descurainia sophia, Capsella bursa-pastoris, Abutilon theophrasti, Galium aparine, Stellaria media, Lithospermum arvense, rorippa indica, Alopecurus aequalis, Alopecurus japonicus, Eleusine indica, Beckmannia syzigachne, Sclerochloa dura, Conyza Canadensis, Phleum paniculatum, Veronica didyma Tenore, Bromus japonicus, Aegilops tauschii, Phalaris arundinacea, Amaranthus retroflexus, Chenopodiaceae, Commelina communis, Sonchus arvensis, Convolvulus arvensis, Cirsium setosum, Bidens tripartita L., Solanum nigrum, Acalypha australis, Digitaria sanguinalis, Echinochloa crusgalli, Setaria viridis, Setaria glauca, Leptochloa chinensis, Monochoria vaginalis, Sagittaria trifolia, Scirpus juncoides, Cyperus rotundus, Cyperus iria, Cyperus difformis, Fimbristylis, Portulaca oleracea, Xanthium sibiricum, Pharbitis nil, etc.) and major crop seeds (wheat, corn, rice, soybean, cotton, oilseed rape, millet, sorghum, potato, sesame, ricinus, etc.) were placed in plastic pots filled with soil, then covered with 0.5-2 cm of soil, allowed to grow in a good greenhouse environment. After 2 weeks of sowing, the test plants were treated in the 2-3 leaf stage. The tested compounds of the present invention were respectively dissolved in acetone, then added with Tween 80 and 1.5 liter/ha of emulsifiable concentrate of methyl oleate as synergist, diluted with a certain amount of water to obtain a solution with a certain concentration, and sprayed with a spray tower onto the plants. After the application, the plants were cultured for 3 weeks in the greenhouse, and then the experimental results of the weeding were counted. The doses of the used compounds were 500, 250, 125, 60, 30, 15, 7.5 g/ha, and the averages were obtained by repeating for three times.

| SMILES | Weeding effect in post-emergence stage, Eleusine indica [1] | Weeding effect in post-emergence stage, Setaria viridis [2] | Weeding effect in post-emergence stage, Digitaria sanguinalis [3] | Weeding effect in post-emergence stage, Alopecurus japonicus [4] | Weeding effect in post-emergence stage, Abutilon theophrasti [5] | Weeding effect in post-emergence stage, Echinochloa crusgalli [6] |
| --- | --- | --- | --- | --- | --- | --- |
| CCCOC(=O)C(C)O/N=C/c1cc(-n2c(=O)n(C)c(=S)n(C)c2=O)c(F)cc1Cl (racemic) [Compound 4] | 5 (Level 5: growth control rate is above 85%) | 5 (Level 5: growth control rate is above 85%) | 5 (Level 5: growth control rate is above 85%) | 5 (Level 5: growth control rate is above 85%) | 5 (Level 5: growth control rate is above 85%) | 5 (Level 5: growth control rate is above 85%) |
| CC(C)OC(=O)C(C)O/N=C/c1cc(-n2c(=O)n(C)c(=S)n(C)c2=O)c(F)cc1Cl (racemic) [Compound 5] | 5 (Level 5: growth control rate is above 85%) | 5 (Level 5: growth control rate is above 85%) | 5 (Level 5: growth control rate is above 85%) | 5 (Level 5: growth control rate is above 85%) | 5 (Level 5: growth control rate is above 85%) | 5 (Level 5: growth control rate is above 85%) |
| C=CCCOC(=O)C(C)O/N=C/c1cc(-n2c(=O)n(C)c(=S)n(C)c2=O)c(F)cc1Cl (racemic) [Compound 6] | 5 (Level 5: growth control rate is above 85%) | 5 (Level 5: growth control rate is above 85%) | 5 (Level 5: growth control rate is above 85%) | 5 (Level 5: growth control rate is above 85%) | 5 (Level 5: growth control rate is above 85%) | 5 (Level 5: growth control rate is above 85%) |
| CC(O/N=C/c1cc(-n2c(=O)n(C)c(=S)n(C)c2=O)c(F)cc1Cl)C(=O)OCC1CC1 (racemic) [Compound 9] | 5 (Level 5: growth control rate is above 85%) | 5 (Level 5: growth control rate is above 85%) | 5 (Level 5: growth control rate is above 85%) | 5 (Level 5: growth control rate is above 85%) | 5 (Level 5: growth control rate is above 85%) | 5 (Level 5: growth control rate is above 85%) |
| CC(O/N=C/c1cc(-n2c(=O)n(C)c(=S)n(C)c2=O)c(F)cc1Cl)C(=O)OCCF (racemic) [Compound 10] | 5 (Level 5: growth control rate is above 85%) | 5 (Level 5: growth control rate is above 85%) | 5 (Level 5: growth control rate is above 85%) | 5 (Level 5: growth control rate is above 85%) | 5 (Level 5: growth control rate is above 85%) | 5 (Level 5: growth control rate is above 85%) |
| CC(O/N=C/c1cc(-n2c(=O)n(C)c(=S)n(C)c2=O)c(F)cc1Cl)C(=O)OCCCF (racemic) [Compound 11] | 5 (Level 5: growth control rate is above 85%) | 5 (Level 5: growth control rate is above 85%) | 5 (Level 5: growth control rate is above 85%) | 5 (Level 5: growth control rate is above 85%) | 5 (Level 5: growth control rate is above 85%) | 5 (Level 5: growth control rate is above 85%) |
| CC(O/N=C/c1cc(-n2c(=O)n(C)c(=S)n(C)c2=O)c(F)cc1Cl)C(=O)OCCCC(F)(F)F (racemic) [Compound 12] | 5 (Level 5: growth control rate is above 85%) | 5 (Level 5: growth control rate is above 85%) | 5 (Level 5: growth control rate is above 85%) | 5 (Level 5: growth control rate is above 85%) | 5 (Level 5: growth control rate is above 85%) | 5 (Level 5: growth control rate is above 85%) |
| COCCOC(=O)C(C)O/N=C/c1cc(-n2c(=O)n(C)c(=S)n(C)c2=O)c(F)cc1Cl (racemic) [Compound 14] | 5 (Level 5: growth control rate is above 85%) | 5 (Level 5: growth control rate is above 85%) | 5 (Level 5: growth control rate is above 85%) | 4 (Level 4: growth control rate is greater than or equal to 60% and less than 85%) | 5 (Level 5: growth control rate is above 85%) | 5 (Level 5: growth control rate is above 85%) |
| CCOC(=O)COC(=O)C(C)O/N=C/c1cc(-n2c(=O)n(C)c(=S)n(C)c2=O)c(F)cc1Cl (racemic) [Compound 17] | 5 (Level 5: growth control rate is above 85%) | 5 (Level 5: growth control rate is above 85%) | 5 (Level 5: growth control rate is above 85%) | 5 (Level 5: growth control rate is above 85%) | 5 (Level 5: growth control rate is above 85%) | 5 (Level 5: growth control rate is above 85%) |
| CCOC(=O)C(C)O/N=C/c1cc(-n2c(=O)n(C)c(=S)n(C)c2=O)c(F)cc1C(F)(F)F (racemic) [Compound 86] | 5 (Level 5: growth control rate is above 85%) | 4 (Level 4: growth control rate is greater than or equal to 60% and less than 85%) | 3 (Level 3: growth control rate is greater than or equal to 40% and less than 60%) | 3 (Level 3: growth control rate is greater than or equal to 40% and less than 60%) | 5 (Level 5: growth control rate is above 85%) | 4 (Level 4: growth control rate is greater than or equal to 60% and less than 85%) |
| COC(=O)C(C)O/N=C/c1cc(-n2c(=O)n(C)c(=S)n(C)c2=O)c(F)cc1C#N (racemic) [Compound 87] | 5 (Level 5: growth control rate is above 85%) | 5 (Level 5: growth control rate is above 85%) | 5 (Level 5: growth control rate is above 85%) | 5 (Level 5: growth control rate is above 85%) | 5 (Level 5: growth control rate is above 85%) | 5 (Level 5: growth control rate is above 85%) |
